From patent US20130203659A1 (priority 2006, published 2013)
Read-outs that look alike come from different tables or passages of the source. Non-standard residues stand in square brackets, D forms with d. Primed or numbered codes have the meaning given here. No end group written: not given here. Aib′ = alpha aminobutyric acid (source's wording); 20k mPEG = methoxy-polyethylene glycol, 20 kDa; 20k PEG = polyethylene glycol, 20 kDa

What was measured:
[1] = tested on: db/db diabetic mouse model; test: Fed blood glucose in db/db diabetic mice; format: in vivo; details: for decrease of blood glucose levels over time (FIG. 13): 10 ug injected into each mouse
Protocol: The db/db mice are commercially available from The Jackson Laboratory JAX® GEMM® Strain—Spontaneous Mutation Congenic Mice, and are homozygous for the diabetes spontaneous mutation (Lepr^db). These mice become identifiably obese around 3 to 4 weeks of age. The criterion for selection for each mouse to enter the study was blood glucose of at least 300 mg/dL. Db/db mice at 8.5 weeks of age (for a chronic 1-2 wk study) to about 10-11 weeks of age (for an acute 1-3 day study) were injected once with each tested compound (acute experiment) or multiple times (chronic experiment). […] The mice were then placed in a fresh cage without any chow, so as to limit any variability in blood glucose levels associated with eating behaviors. Time points of 1 hr, 4 hr, 6 hr, and 24 hr were normally taken. When at the 24 hour time point blood glucose values were below where they started, further time points at every 24 hrs were taken until blood glucose returned to the baseline levels. Normal chow was given back after the 6 hr time point.
Tachyphylaxis was determined by multiple injections. A second injection of the compound was administered after the blood glucose levels sufficiently returned to starting baseline levels. At this point, it was evident whether the compound had the same effect/efficacy, or if there was any noticeable tachyphylaxis.

human GLP-1 receptor [2] = target: T1, human GLP-1 receptor (Homo sapiens, UniProt P43220); test: In vitro GLP-1 receptor binding (125I-GLP-1 ligand binding assay), human receptor
T1 construct: expressed in transfected cells; host or cells: CHOK1 cells with a cAMP-regulated luciferase reporter construct
Protocol: Cells were sedimented at 1500 rpm for 10 minutes. The resulting pellets were homogenized in 15 mls of ice cold sucrose buffer (25 mM Tris-HCl, 0.32 M Sucrose, 0.25 g/L sodium azide, pH 7.4) with a motorized, glass fitted, Teflon homogenizer. The homogenate was centrifuged at 48,000×g at 4° C. for 10 minutes, resuspended in 25 ml assay buffer (50 mM Tris-HCl, 5 mM MgCl2, 10 mg/ml protease-free BSA, 0.1 mg/ml STI, and 0.1 mg/ml Pefabloc, pH 7.4) with a Tissue-Tearor (Biospec Products), then centrifuged again at 48,000×g for 10 minutes. The pellets were homogenized for a third time in 15 ml assay buffer using the Tissue-Tearor and again centrifuged at 48,000×g for 10 minutes. The resulting pellet was resuspended in assay buffer at a wet weight concentration of 4 mg/ml.
Binding assays were performed in 96-well U-bottom plates. […] Bound radioactivity was determined using a TopCount microplate scintillation and luminescence counter (Packard Instrument Company, PerkinElmer, Shelton, Conn.). Nonlinear regression analyses of resulting concentration curves were performed using GraphPad Prism (GraphPad Software, Inc., San Diego, Calif.).

human GLP-1 receptor [3] = target: T1, human GLP-1 receptor; test: GLP-1R reporter assay (cAMP-regulated luciferase, CHOK1 cells), human receptor; format: cell-based; details: luciferase reporter, 6 hours exposure; read-out: EC50 human
Protocol: (§1) A. GLP-1R Reporter Assay:
(§2) Increased cAMP levels were measured through enhanced expression of a luciferase reporter gene. […] The evening prior to assay, the cells were washed, the medium replaced with serum-free medium containing 0.5% protease-free bovine serum albumin (BSA), and then cultured overnight. […] Cell lysates were assayed for luciferase activity using the Luciferase Assay System (Promega Corporation, Madison, Wis.). Luciferase activity was measured using a Luminoskan Ascent (Thermo Electron Corporation, Marietta, Ohio). Nonlinear regression analyses of resultant compound concentration curves were performed using GraphPad Prism (GraphPad Software, Inc., San Diego, Calif.).

mouse GLP-1 receptor = target: T2, mouse GLP-1 receptor (Mus musculus, UniProt O35659); test: GLP-1R reporter assay (cAMP-regulated luciferase, CHOK1 cells), mouse receptor; format: cell-based; details: 6 hours exposure
T2 construct: expressed in transfected cells; host or cells: CHOK1 cells with a cAMP-regulated luciferase reporter construct
T2 sequence (O35659 22-463): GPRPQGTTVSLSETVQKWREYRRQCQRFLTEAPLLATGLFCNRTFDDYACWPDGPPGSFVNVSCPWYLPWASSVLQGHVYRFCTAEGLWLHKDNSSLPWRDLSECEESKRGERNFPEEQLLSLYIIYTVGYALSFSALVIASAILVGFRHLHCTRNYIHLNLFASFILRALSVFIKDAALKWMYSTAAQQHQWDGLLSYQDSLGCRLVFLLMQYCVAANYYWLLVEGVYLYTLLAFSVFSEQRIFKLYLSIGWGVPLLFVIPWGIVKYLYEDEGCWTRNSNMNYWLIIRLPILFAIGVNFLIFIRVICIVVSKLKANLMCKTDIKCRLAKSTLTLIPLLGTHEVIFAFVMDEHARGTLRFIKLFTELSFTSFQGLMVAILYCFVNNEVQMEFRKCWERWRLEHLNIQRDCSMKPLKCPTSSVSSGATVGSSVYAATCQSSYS
Protocol: as §1, §2

[4] = tested on: C57B16 (normal lean) mice; test: Blood glucose and intraperitoneal glucose tolerance test in C57B16 (normal lean) mice; format: in vivo, mouse
Protocol: C57B16 (normal lean) mice were used at 10 to 12 weeks of age. These mice are commercially available through any vendor, such as Jackson Laboratories or Charles River, and are considered to be normal. The term “lean” is used to contrast these mice to obese db/db mice. C57B16 mice were randomized on body weight. […] After 4-5 hrs, an intraperitoneal glucose tolerance test (glucose tolerance test measures the body's ability to metabolize glucose) was performed using 2 g/kg of glucose dose. Blood glucose levels were measured 30 min and 90 minutes after the glucose load was administered and 24 hours or until blood glucose levels were back to the original values.

T1 sequence (P43220 24-463): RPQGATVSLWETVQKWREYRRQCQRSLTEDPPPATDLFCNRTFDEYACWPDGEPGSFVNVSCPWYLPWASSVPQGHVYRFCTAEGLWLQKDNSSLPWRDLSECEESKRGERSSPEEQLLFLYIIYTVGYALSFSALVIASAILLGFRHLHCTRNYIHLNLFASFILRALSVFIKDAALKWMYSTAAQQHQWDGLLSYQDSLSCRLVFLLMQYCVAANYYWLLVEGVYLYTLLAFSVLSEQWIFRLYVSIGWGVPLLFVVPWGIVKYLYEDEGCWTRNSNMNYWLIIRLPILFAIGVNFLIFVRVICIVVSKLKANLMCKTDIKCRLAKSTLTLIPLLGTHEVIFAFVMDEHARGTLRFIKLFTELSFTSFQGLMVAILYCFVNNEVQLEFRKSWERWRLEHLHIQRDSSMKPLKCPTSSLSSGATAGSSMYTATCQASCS

Molecule | EC50 (human GLP-1 receptor [3]) | EC50 (mouse GLP-1 receptor) | IC50 (human GLP-1 receptor [2]) | further results
cgGLP-20: SEQ ID NO: 25 + 20 k mPEG (H[Aib′]EGTFTSDVSSYLE[Aib′]QAAKEFIAWLVKGRGC(20k mPEG)SG; not fully specified) | – | – | – | decrease of blood glucose levels over time (FIG. 13) [1]: significant decrease in blood glucose levels over a 48 hour time period
cgGLP-18: SEQ ID NO: 12 + 20k PEG (HXEGTFTSDVSSYLEGQAAKEFIAWLVKGRGCSGG; 20k PEG) | – | – | – | ability to lower blood glucose over a 72 hour time span (FIG. 12) ([1]; relative to control): lowered blood glucose relative to control
cgGLP-23: SEQ ID NO: 17 + 20 k PEG (HGEGTFTSDVSSYLE[Aib′]QAAKEFIAWLVKGRGC(20k PEG)-NH2; not fully specified; printed as HGEGT FTSDV SSYLE ZQAAK EFIAW LVKGR GC-amide; also: Aib defined in source as alpha aminobutyric acid) | – | – | – | decrease of blood glucose levels over time (FIG. 13) [1]: significant decrease in blood glucose levels over a 48 hour time period
cgGLP-9: SEQ ID NO: 6 + 20k PEG dimer (HGEGTFTSDVSSYLEGCAAKEFIAWLVKGRG; not fully specified (residue 17); also: 20k PEG dimer) | 1 nM | 9 nM | – | IC50 (human GLP-1 receptor [2]; membranes of CHOK1 cells expressing human GLP-1 receptor, 0.2 nM 125I-GLP-1): > 1000 nM
CC[C@H](C)[C@H](NC(=O)[C@H](Cc1ccccc1)NC(=O)[C@H](CCC(=O)O)NC(=O)[C@H](CCCCN)NC(=O)[C@H](C)NC(=O)[C@H](C)NC(=O)[C@H](CCC(N)=O)NC(=O)CNC(=O)[C@H](CCC(=O)O)NC(=O)[C@H](CC(C)C)NC(=O)[C@H](Cc1ccc(O)cc1)NC(=O)[C@H](CO)NC(=O)[C@H](CO)NC(=O)[C@@H](NC(=O)[C@H](CC(=O)O)NC(=O)[C@H](CO)NC(=O)[C@@H](NC(=O)[C@H](Cc1ccccc1)NC(=O)[C@@H](NC(=O)CNC(=O)[C@H](CCC(=O)O)NC(=O)[C@H](C)NC(=O)[C@H](Cc1c[nH]cn1)NC(=O)[C@@H](N)CO)[C@@H](C)O)[C@@H](C)O)C(C)C)C(=O)N[C@@H](C)C(=O)N[C@@H](Cc1c[nH]c2ccccc12)C(=O)N[C@@H](CC(C)C)C(=O)N[C@H](C(=O)N[C@@H](CCCCN)C(=O)NCC(=O)N[C@@H](CCCNC(=N)N)C(=O)O)C(C)C [S-GLP-1, S HAEGTFTSDVSSYLEGQAAKEFIAWLVKGR] | 0.4 nM | 2 nM | 53 nM | –
CC[C@H](C)[C@H](NC(=O)[C@H](Cc1ccccc1)NC(=O)[C@H](CCC(=O)O)NC(=O)[C@H](CCCCN)NC(=O)[C@H](C)NC(=O)[C@H](C)NC(=O)[C@H](CCC(N)=O)NC(=O)CNC(=O)[C@H](CCC(=O)O)NC(=O)[C@H](CC(C)C)NC(=O)[C@H](Cc1ccc(O)cc1)NC(=O)[C@H](CO)NC(=O)[C@H](CO)NC(=O)[C@@H](NC(=O)[C@H](CC(=O)O)NC(=O)[C@H](CO)NC(=O)[C@@H](NC(=O)[C@H](Cc1ccccc1)NC(=O)[C@@H](NC(=O)CNC(=O)[C@H](CCC(=O)O)NC(=O)[C@H](C)NC(=O)[C@H](Cc1c[nH]cn1)NC(=O)[C@@H](N)[C@@H](C)O)[C@@H](C)O)[C@@H](C)O)C(C)C)C(=O)N[C@@H](C)C(=O)N[C@@H](Cc1c[nH]c2ccccc12)C(=O)N[C@@H](CC(C)C)C(=O)N[C@H](C(=O)N[C@@H](CCCCN)C(=O)NCC(=O)N[C@@H](CCCNC(=N)N)C(=O)O)C(C)C [T-GLP-1, T HAEGTFTSDVSSYLEGQAAKEFIAWLVKGR] | 0.3 nM | 2 nM | 53 nM | –
CC[C@H](C)[C@H](NC(=O)[C@H](Cc1ccccc1)NC(=O)[C@H](CCC(=O)O)NC(=O)[C@H](CCCCN)NC(=O)[C@H](C)NC(=O)[C@H](C)NC(=O)[C@H](CCC(N)=O)NC(=O)CNC(=O)[C@H](CCC(=O)O)NC(=O)[C@H](CC(C)C)NC(=O)[C@H](Cc1ccc(O)cc1)NC(=O)[C@H](CO)NC(=O)[C@H](CO)NC(=O)[C@@H](NC(=O)[C@H](CC(=O)O)NC(=O)[C@H](CO)NC(=O)[C@@H](NC(=O)[C@H](Cc1ccccc1)NC(=O)[C@@H](NC(=O)CNC(=O)[C@H](CCC(=O)O)NC(=O)[C@H](C)NC(=O)[C@H](Cc1c[nH]cn1)NC(=O)[C@H](Cc1c[nH]cn1)NC(=O)[C@H](Cc1c[nH]cn1)NC(=O)[C@@H](N)CCSC)[C@@H](C)O)[C@@H](C)O)C(C)C)C(=O)N[C@@H](C)C(=O)N[C@@H](Cc1c[nH]c2ccccc12)C(=O)N[C@@H](CC(C)C)C(=O)N[C@H](C(=O)N[C@@H](CCCCN)C(=O)NCC(=O)N[C@@H](CCCNC(=N)N)C(=O)O)C(C)C [MHH-GLP1, MHH HAEGTFTSDVSSYLEGQAAKEFIAWLVKGR] | 1 nM | 5 nM | 350 nM | –
mgGLP32: SEQ ID NO: 18 + 20 k PEG (HGEGTFTSDVSSYLE[Aib′]QAAKEFIAWLVKGRGC(20k PEG)A-NH2; not fully specified) | – | – | – | lowering of blood glucose levels (FIG. 14) ([1]; 10 ug per mouse): lowered blood glucose levels; time needed for blood glucose levels to return to normal levels ([1]; 10 ug/mouse): 72 h; lowering of blood glucose at different doses (FIG. 15) ([1]; 5 and 10 μg/mouse): lowered blood glucose levels for 24 hours in a dose dependent fashion; tachyphylaxis, multiple dose experiment ([1]; second bolus the next day): The same result was observed; tachyphylaxis after the 4th dose (FIG. 19) ([4]; 4-day multiple dose experiment): No tachyphylaxyis was observed after the 4th dose; blood glucose after injection, before the GTT (FIG. 16) ([4]; C57B16 mice, first 52 hours after injection): decreased blood glucose to the same extent during the first 52 hours; blood glucose during the 4 hour fast (FIG. 19) ([4]; multiple dose experiment): blood glucose was decreased during the 4 hour fast; blood glucose spike during first and second GTT (FIG. 19) ([4]; multiple dose experiment, GTT after first and 4th injection): no blood glucose spike was seen during the first and second GTT
CC[C@H](C)[C@H](NC(=O)[C@H](Cc1ccccc1)NC(=O)[C@H](CCC(=O)O)NC(=O)[C@H](CCCCN)NC(=O)[C@H](C)NC(=O)[C@H](C)NC(=O)[C@H](CCC(N)=O)NC(=O)CNC(=O)[C@H](CCC(=O)O)NC(=O)[C@H](CC(C)C)NC(=O)[C@H](Cc1ccc(O)cc1)NC(=O)[C@H](CO)NC(=O)[C@H](CO)NC(=O)[C@@H](NC(=O)[C@H](CC(=O)O)NC(=O)[C@H](CO)NC(=O)[C@@H](NC(=O)[C@H](Cc1ccccc1)NC(=O)[C@@H](NC(=O)CNC(=O)[C@H](CCC(=O)O)NC(=O)[C@H](C)NC(=O)[C@H](Cc1c[nH]cn1)NC(=O)[C@H](CCSC)NC(=O)[C@@H](N)CCSC)[C@@H](C)O)[C@@H](C)O)C(C)C)C(=O)N[C@@H](C)C(=O)N[C@@H](Cc1c[nH]c2ccccc12)C(=O)N[C@@H](CC(C)C)C(=O)N[C@H](C(=O)N[C@@H](CCCCN)C(=O)NCC(=O)N[C@@H](CCCNC(=N)N)C(=O)O)C(C)C [MM-GLP1, MM HAEGTFTSDVSSYLEGQAAKEFIAWLVKGR] | 0.5 nM | 3 nM | 100 nM | –
